Test results as given in patent publication US20210221812A1, “MATRINE a-KETOAMINE COMPOUNDS, PREPARATION METHOD THEREFOR AND USE THEREOF” (SHANGHAI XINGYE PHARMACEUTICAL TECHNOLOGY CO., LTD, priority 2018, published 2021).

Test system: MGC-803 cells
Assay: MTT tumor cell growth inhibition, MGC-803
Assay type: cell-based
Settings: Homo sapiens, 48 h, read-out: Tumors growth-inhibitory activity (IC50) MGC-803
Protocol: (§1) Using MTT method to determine the growth inhibition activity of the matrine compounds on Lovo, MGC-803, Mia-paca2, HpeG-2, A549, k562, and Panc-1 cells in vitro. Logarithmic growth phase of Lovo, MGC-803, Mia-paca2, HpeG-2, A549, k562, Panc-1 cells were inoculated into 96-well plates (purchased from Institute of Biochemical Cells, Chinese Academy of Sciences, and cultured according to conventional tumor cell culture methods) at a density of 4×10^4/mL and 180 μL/well; after the cells adhered to the wall, 20 μL of drug solution was added to each well and matined the final drug concentrations were 0.1 μM, 1 μM, 10 μM, 50 μM, 100 μM respectively. After 48 h, 5 mg/mL MTT solution was added (20 μL/well) and maintained in a CO2 incubator for 3-4 h. After that, discarding the supernatant carefully, and DMSO was added (200 μL/well) when the residual liquid was air-dried, and shook for 0.5-1 h until the residual crystals was dissolved. The absorbance OD was measured at 492 nm by a microplate reader. GraphPad Prism 5 software was used to calculate the IC50 value.

Row | IC50 [µM] | SMILES
1 | > 100 | O=C(NC1CC[C@@H]2[C@H]3CCCN4CCC[C@@H](CN2C1=O)[C@@H]34)c1cc(Cl)ccc1O (stereo partly drawn) [GJD 55]
2 | > 100 | O=C1c2ccccc2C(=O)N1C1CC[C@@H]2[C@H]3CCCN4CCC[C@@H](CN2C1=O)[C@@H]34 (stereo partly drawn) [GJD 01]
3 | 50 to 100 | O=C(NC1CC[C@@H]2[C@H]3CCCN4CCC[C@@H](CN2C1=O)[C@@H]34)c1ccc(OC(F)F)c(OCC2CC2)c1 (stereo partly drawn) [GJD 52]

Test system: Panc-1 cells
Assay: MTT tumor cell growth inhibition, Panc-1
Assay type: cell-based
Settings: Homo sapiens, 48 h, read-out: Tumors growth-inhibitory activity (IC50) Panc-1
Protocol: as §1

Row | IC50 [µM] | SMILES
4 | 50 to 100 | O=C(NC1CC[C@@H]2[C@H]3CCCN4CCC[C@@H](CN2C1=O)[C@@H]34)c1cc(Cl)ccc1O (stereo partly drawn) [GJD 55]
5 | > 100 | O=C1c2ccccc2C(=O)N1C1CC[C@@H]2[C@H]3CCCN4CCC[C@@H](CN2C1=O)[C@@H]34 (stereo partly drawn) [GJD 01]
6 | 50 to 100 | O=C(NC1CC[C@@H]2[C@H]3CCCN4CCC[C@@H](CN2C1=O)[C@@H]34)c1ccc(OC(F)F)c(OCC2CC2)c1 (stereo partly drawn) [GJD 52]

Test system: HpeG-2 cells
Assay: MTT tumor cell growth inhibition, HpeG-2
Assay type: cell-based
Settings: 48 h, read-out: Tumors growth-inhibitory activity (IC50) HpeG-2
Protocol: as §1

Row | IC50 [µM] | SMILES
7 | < 50 | O=C(NC1CC[C@@H]2[C@H]3CCCN4CCC[C@@H](CN2C1=O)[C@@H]34)c1cc(Cl)ccc1O (stereo partly drawn) [GJD 55]
8 | 50 to 100 | O=C1c2ccccc2C(=O)N1C1CC[C@@H]2[C@H]3CCCN4CCC[C@@H](CN2C1=O)[C@@H]34 (stereo partly drawn) [GJD 01]
9 | < 50 | O=C(NC1CC[C@@H]2[C@H]3CCCN4CCC[C@@H](CN2C1=O)[C@@H]34)c1ccc(OC(F)F)c(OCC2CC2)c1 (stereo partly drawn) [GJD 52]

Test system: Lovo cells
Assay: Anti-tumor activity of NK cells activated by compounds, Lovo (CFSE/PI flow cytometry)
Assay type: cell-based
Settings: Homo sapiens, tumor cells treated with 20 μM compound 48 h, then mixed with NK cells 5:1 for 4 hours, CFSE+PI+ tumor cells, read-out: Lovo inhibition rate (%)
Protocol: (§2) Logarithmic growth phase of Lovo, HpeG-2, A549, k562, Panc-1 cells were collected and seeded in a 6-well plate at a density of 5×10^5/mL and 2 mL/well separately. The experimental group was treated with 20 μM final drug concentration of GJDx compounds, and the control group was treated with an equal volume of RPMI1640 medium. The groups were cultured at 37° C., saturated humidity, 5% CO2 for 48 h. After that, the cells of each group were collected, centrifuged and the supernatant was removed and resuspended in PBS at a density of 1×10^6/mL. Then 2 μL of CFSE stock solution (final concentration was 10 μM) was added into the cell suspension per 1 mL and cultured at 37° C. with 5% CO2 for 30 min, and then added 5-10 times of the volume of 4° C. pre-chilled RPM 1640 complete medium, and incubated on ice for 5 minutes, discarded the supernatant by centrifugation at 4° C., and wash the cells with fresh medium for 3 times. After that, mixing the labeled tumor cells and NK cells (the NK cell culture medium was α-MEM contained 1.5 g/L sodium bicarbonate, 12.5% fetal bovine serum, and 12.5% horse serum) according to the ratio of 5:1, the mixture cells was collected and washed with flow buffer twice after incubated for 4 hours, then 50 μg/mL PI was added, and incubated at room temperature for 15 minutes in the dark, and finally testing the percentage of CFSE^+PI^+ tumor cells on the flow cytometer.

Row | SMILES | inhibition at 20 µM [%]
10 | O=C(NC1CC[C@@H]2[C@H]3CCCN4CCC[C@@H](CN2C1=O)[C@@H]34)c1cc(Cl)ccc1O (stereo partly drawn) [GJD 55] | < 50
11 | O=C1c2ccccc2C(=O)N1C1CC[C@@H]2[C@H]3CCCN4CCC[C@@H](CN2C1=O)[C@@H]34 (stereo partly drawn) [GJD 01] | ≥ 50

Test system: HpeG-2 cells
Assay: Anti-tumor activity of NK cells activated by compounds, HpeG-2 (CFSE/PI flow cytometry)
Assay type: cell-based
Settings: tumor cells treated with 20 μM compound 48 h, then mixed with NK cells 5:1 for 4 hours; CFSE+PI+ tumor cells; read-out: HpeG-2 inhibition rate (%)
Protocol: as §2

Row | SMILES | inhibition at 20 µM [%]
12 | O=C(NC1CC[C@@H]2[C@H]3CCCN4CCC[C@@H](CN2C1=O)[C@@H]34)c1cc(Cl)ccc1O (stereo partly drawn) [GJD 55] | < 50
13 | O=C1c2ccccc2C(=O)N1C1CC[C@@H]2[C@H]3CCCN4CCC[C@@H](CN2C1=O)[C@@H]34 (stereo partly drawn) [GJD 01] | > 50

Test system: k562 cells
Assay: MTT tumor cell growth inhibition, k562
Assay type: cell-based
Settings: Homo sapiens, 48 h, read-out: Tumors growth-inhibitory activity (IC50) k562
Protocol: as §1

Row | IC50 [µM] | SMILES
14 | 50 to 100 | O=C(NC1CC[C@@H]2[C@H]3CCCN4CCC[C@@H](CN2C1=O)[C@@H]34)c1cc(Cl)ccc1O (stereo partly drawn) [GJD 55]
15 | 50 to 100 | O=C1c2ccccc2C(=O)N1C1CC[C@@H]2[C@H]3CCCN4CCC[C@@H](CN2C1=O)[C@@H]34 (stereo partly drawn) [GJD 01]
16 | 50 to 100 | O=C(NC1CC[C@@H]2[C@H]3CCCN4CCC[C@@H](CN2C1=O)[C@@H]34)c1ccc(OC(F)F)c(OCC2CC2)c1 (stereo partly drawn) [GJD 52]

Test system: TNF-α
Assay: TNF-α activity inhibiting assay (LPS-stimulated peripheral blood, ELISA)
Assay type: cell-based, human
Settings: Homo sapiens, compound 20 μM, LPS 10 ng/mL, 6 hours, diluted peripheral blood of healthy volunteers, read-out: TNF-α inhibition rate (%)
Protocol: Methods: Peripheral blood from healthy volunteers was collected with EDTA anticoagulant tubes. After being diluted 5-fold with 1640 medium (Gibco, USA), the blood was added to 96-well cell culture plates (Costar, USA) and then treated with 10 μL solution of the compound of general formula (I) of the present invention in DMSO (Sigma, USA), the final concentration of the compound was 20 μM with the final concentration of DMSO was 0.2%. After incubation for 60 minutes in an incubator at 37° C. under 5% CO2, 10 μL LPS (Sigma, USA) was added to the reaction system, and the final concentration was 10 ng/mL. After further culturing for 6 hours in the incubator at 37° C. under 5% CO2, the supernatant was collected. The content of TNF-α was determined by ELISA (BD Biosciences, USA). Absorbance was detected at OD450 nm with a microplate reader, with OD 650 nm as reference. The control, a solution containing 0.2% DMSO medium, was as 0% inhibition. Raw data and standard curves were recorded. The four-parameter drug inhibition curve was plotted by XL-fit software and the inhibition rate of each compound was calculated.

Row | SMILES | inhibition at 20 µM [%]
17 | O=C1c2ccccc2C(=O)N1C1CC[C@@H]2[C@H]3CCCN4CCC[C@@H](CN2C1=O)[C@@H]34 (stereo partly drawn) [GJD 01] | ≥ 50
18 | O=C(NC1CC[C@@H]2[C@H]3CCCN4CCC[C@@H](CN2C1=O)[C@@H]34)c1ccc(OC(F)F)c(OCC2CC2)c1 (stereo partly drawn) [GJD 52] | > 50

Test system: Mia-paca2 cells
Assay: MTT tumor cell growth inhibition, Mia-paca2
Assay type: cell-based
Settings: Homo sapiens, MIA PaCa-2, 48 h, read-out: Tumors growth-inhibitory activity (IC50) Mia-paca2
Protocol: as §1

Row | IC50 [µM] | SMILES
19 | 50 to 100 | O=C(NC1CC[C@@H]2[C@H]3CCCN4CCC[C@@H](CN2C1=O)[C@@H]34)c1cc(Cl)ccc1O (stereo partly drawn) [GJD 55]
20 | > 100 | O=C1c2ccccc2C(=O)N1C1CC[C@@H]2[C@H]3CCCN4CCC[C@@H](CN2C1=O)[C@@H]34 (stereo partly drawn) [GJD 01]
21 | 50 to 100 | O=C(NC1CC[C@@H]2[C@H]3CCCN4CCC[C@@H](CN2C1=O)[C@@H]34)c1ccc(OC(F)F)c(OCC2CC2)c1 (stereo partly drawn) [GJD 52]

Test system: Panc-1 cells
Assay: Anti-tumor activity of NK cells activated by compounds, Panc-1 (CFSE/PI flow cytometry)
Assay type: cell-based
Settings: Homo sapiens, tumor cells treated with 20 μM compound 48 h, then mixed with NK cells 5:1 for 4 hours, CFSE+PI+ tumor cells, read-out: Panc-1 inhibition rate (%)
Protocol: as §2

Row | SMILES | inhibition at 20 µM [%]
22 | O=C(NC1CC[C@@H]2[C@H]3CCCN4CCC[C@@H](CN2C1=O)[C@@H]34)c1cc(Cl)ccc1O (stereo partly drawn) [GJD 55] | > 50
23 | O=C1c2ccccc2C(=O)N1C1CC[C@@H]2[C@H]3CCCN4CCC[C@@H](CN2C1=O)[C@@H]34 (stereo partly drawn) [GJD 01] | < 50

Test system: k562 cells
Assay: Anti-tumor activity of NK cells activated by compounds, k562 (CFSE/PI flow cytometry)
Assay type: cell-based
Settings: Homo sapiens, tumor cells treated with 20 μM compound 48 h, then mixed with NK cells 5:1 for 4 hours, CFSE+PI+ tumor cells, read-out: k562 inhibition rate (%)
Protocol: as §2

Row | SMILES | inhibition at 20 µM [%]
24 | O=C(NC1CC[C@@H]2[C@H]3CCCN4CCC[C@@H](CN2C1=O)[C@@H]34)c1cc(Cl)ccc1O (stereo partly drawn) [GJD 55] | < 50
25 | O=C1c2ccccc2C(=O)N1C1CC[C@@H]2[C@H]3CCCN4CCC[C@@H](CN2C1=O)[C@@H]34 (stereo partly drawn) [GJD 01] | < 50

Test system: A549 cells
Assay: MTT tumor cell growth inhibition, A549
Assay type: cell-based
Settings: Homo sapiens, 48 h, read-out: Tumors growth-inhibitory activity (IC50) A549
Protocol: as §1

Row | IC50 [µM] | SMILES
26 | < 50 | O=C(NC1CC[C@@H]2[C@H]3CCCN4CCC[C@@H](CN2C1=O)[C@@H]34)c1cc(Cl)ccc1O (stereo partly drawn) [GJD 55]
27 | 50 to 100 | O=C1c2ccccc2C(=O)N1C1CC[C@@H]2[C@H]3CCCN4CCC[C@@H](CN2C1=O)[C@@H]34 (stereo partly drawn) [GJD 01]
28 | < 50 | O=C(NC1CC[C@@H]2[C@H]3CCCN4CCC[C@@H](CN2C1=O)[C@@H]34)c1ccc(OC(F)F)c(OCC2CC2)c1 (stereo partly drawn) [GJD 52]

Test system: A549 cells
Assay: Anti-tumor activity of NK cells activated by compounds, A549 (CFSE/PI flow cytometry)
Assay type: cell-based
Settings: Homo sapiens, tumor cells treated with 20 μM compound 48 h, then mixed with NK cells 5:1 for 4 hours, CFSE+PI+ tumor cells, read-out: A549 inhibition rate (%)
Protocol: as §2

Row | SMILES | inhibition at 20 µM [%]
29 | O=C(NC1CC[C@@H]2[C@H]3CCCN4CCC[C@@H](CN2C1=O)[C@@H]34)c1cc(Cl)ccc1O (stereo partly drawn) [GJD 55] | < 50
30 | O=C1c2ccccc2C(=O)N1C1CC[C@@H]2[C@H]3CCCN4CCC[C@@H](CN2C1=O)[C@@H]34 (stereo partly drawn) [GJD 01] | > 50

Test system: Lovo cells
Assay: MTT tumor cell growth inhibition, Lovo
Assay type: cell-based
Settings: Homo sapiens, 48 h, read-out: Tumors growth-inhibitory activity (IC50) Lovo
Protocol: as §1

Row | IC50 [µM] | SMILES
31 | 50 to 100 | O=C(NC1CC[C@@H]2[C@H]3CCCN4CCC[C@@H](CN2C1=O)[C@@H]34)c1cc(Cl)ccc1O (stereo partly drawn) [GJD 55]
32 | 50 to 100 | O=C1c2ccccc2C(=O)N1C1CC[C@@H]2[C@H]3CCCN4CCC[C@@H](CN2C1=O)[C@@H]34 (stereo partly drawn) [GJD 01]
33 | 50 to 100 | O=C(NC1CC[C@@H]2[C@H]3CCCN4CCC[C@@H](CN2C1=O)[C@@H]34)c1ccc(OC(F)F)c(OCC2CC2)c1 (stereo partly drawn) [GJD 52]
